Laboratory results published in the supplement of paper PMC10307832.

Key:
Test in all cases: relative viability (nuclei count vs DMSO), 5 days (fraction); higher = more cells survive
[1] = compound: Cn1cnc2c(F)c(Nc3ccc(Br)cc3Cl)c(C(=O)NOCCO)cc21 [Selumetinib] + Nc1nc2[nH]cc(CCc3ccc(C(=O)N[C@@H](CCC(=O)O)C(=O)O)cc3)c2c(=O)[nH]1 [Pemetrexed] (partner 0.2 µM)
Procedure, shortened: (§1)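 After 5 days of treatment, lung cancer cells in 1536-well plates were fixed and stained in a single step (final 0.05% Triton X-100, 1% formaldehyde, 1 ug/ml Hoechst) and their nuclei counted on 4× images. Treatment had been applied by pin tool the day after seeding as one drug alone or as a fixed anchor-drug dose with five library-drug doses (not always all listed) in √10 steps. Relative viability is the nuclei count of treated wells divided by that of vehicle wells, and values are medians of duplicate plates.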

[2] = compound: CC1(C)CCC(CN2CCN(c3ccc(C(=O)NS(=O)(=O)c4ccc(NCC5CCOCC5)c([N+](=O)[O-])c4)c(Oc4cnc5[nH]ccc5c4)c3)CC2)=C(c2ccc(Cl)cc2)C1 [Venetoclax] + COc1cccc2cc(-c3nc([C@H]4CC[C@H](C(=O)O)CC4)n4ncnc(N)c34)[nH]c12 [OSI-027] (partner 0.5 µM)
Procedure, shortened: as §1

[3] = compound: Cn1cnc2c(F)c(Nc3ccc(Br)cc3Cl)c(C(=O)NOCCO)cc21 [Selumetinib]
Procedure, shortened: (§2)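 Following overnight incubation at 37 °C, lung cancer cell lines in 1536-well plates were pinned with five library-drug doses (not always all listed) in √10 steps on vehicle-anchored plates. The cells then spent 5 days without medium change before a combined fix, permeabilisation and Hoechst stain, 4× imaging and MetaXpress nuclear counts. Viability is the treated-to-vehicle ratio of nuclei, taken as the median across plates. Only plates with control CV below 25% and at least one doubling passed.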

[4] = compound: CC1(C)CCC(CN2CCN(c3ccc(C(=O)NS(=O)(=O)c4ccc(NCC5CCOCC5)c([N+](=O)[O-])c4)c(Oc4cnc5[nH]ccc5c4)c3)CC2)=C(c2ccc(Cl)cc2)C1 [Venetoclax]
Procedure, shortened: as §2

NCI-H3122
relative viability ([1]; first compound 0.02 µM): 0.181
relative viability ([1]; first compound 0.06325 µM): 0.171
relative viability ([1]; first compound 0.2 µM): 0.156
relative viability ([1]; first compound 0.6325 µM): 0.169
relative viability ([2]; first compound 0.01 µM): 1.09
relative viability ([2]; first compound 0.03162 µM): 0.979
relative viability ([2]; first compound 0.1 µM): 0.983
relative viability ([2]; first compound 0.3162 µM): 0.871
relative viability ([2]; first compound 1 µM): 0.909
relative viability ([3]; 0.02 µM): 0.846
relative viability ([3]; 0.06325 µM): 0.75
relative viability ([3]; 0.2 µM): 0.697
relative viability ([3]; 0.6325 µM): 0.67
relative viability ([4]; 0.01 µM): 1.06
relative viability ([4]; 0.03162 µM): 1
relative viability ([4]; 0.1 µM): 0.967
relative viability ([4]; 0.3162 µM): 0.962
relative viability ([4]; 1 µM): 0.983

PC-3 [JPC-3]
relative viability ([1]; first compound 0.02 µM): 1.2
relative viability ([1]; first compound 0.06325 µM): 0.819
relative viability ([1]; first compound 0.2 µM): 0.82
relative viability ([1]; first compound 0.6325 µM): 0.836
relative viability ([2]; first compound 0.01 µM): 0.676
relative viability ([2]; first compound 0.03162 µM): 0.719
relative viability ([2]; first compound 0.1 µM): 0.779
relative viability ([2]; first compound 0.3162 µM): 0.791
relative viability ([2]; first compound 1 µM): 0.608
relative viability ([3]; 0.02 µM): 1.01
relative viability ([3]; 0.06325 µM): 1
relative viability ([3]; 0.2 µM): 0.869
relative viability ([3]; 0.6325 µM): 0.787
relative viability ([4]; 0.01 µM): 0.995
relative viability ([4]; 0.03162 µM): 1.07
relative viability ([4]; 0.1 µM): 1.06
relative viability ([4]; 0.3162 µM): 1.04
relative viability ([4]; 1 µM): 0.917

PC-14
relative viability ([1]; first compound 0.02 µM): 0.123
relative viability ([1]; first compound 0.06325 µM): 0.114
relative viability ([1]; first compound 0.2 µM): 0.107
relative viability ([1]; first compound 0.6325 µM): 0.127
relative viability ([2]; first compound 0.01 µM): 0.735
relative viability ([2]; first compound 0.03162 µM): 0.875
relative viability ([2]; first compound 0.1 µM): 0.696
relative viability ([2]; first compound 0.3162 µM): 0.855
relative viability ([2]; first compound 1 µM): 0.722
relative viability ([3]; 0.02 µM): 0.931
relative viability ([3]; 0.06325 µM): 0.932
relative viability ([3]; 0.2 µM): 0.935
relative viability ([3]; 0.6325 µM): 0.844
relative viability ([4]; 0.01 µM): 1
relative viability ([4]; 0.03162 µM): 1.08
relative viability ([4]; 0.1 µM): 1.03
relative viability ([4]; 0.3162 µM): 0.989
relative viability ([4]; 1 µM): 0.818

RERF-LC-KJ
relative viability ([1]; first compound 0.02 µM): 0.429
relative viability ([1]; first compound 0.06325 µM): 0.459
relative viability ([1]; first compound 0.2 µM): 0.492
relative viability ([1]; first compound 0.6325 µM): 0.472
relative viability ([2]; first compound 0.01 µM): 0.555
relative viability ([2]; first compound 0.03162 µM): 0.552
relative viability ([2]; first compound 0.1 µM): 0.577
relative viability ([2]; first compound 0.3162 µM): 0.577
relative viability ([2]; first compound 1 µM): 0.521
relative viability ([3]; 0.02 µM): 1
relative viability ([3]; 0.06325 µM): 0.936
relative viability ([3]; 0.2 µM): 0.968
relative viability ([3]; 0.6325 µM): 0.886
relative viability ([4]; 0.01 µM): 0.987
relative viability ([4]; 0.03162 µM): 1.06
relative viability ([4]; 0.1 µM): 0.972
relative viability ([4]; 0.3162 µM): 0.909
relative viability ([4]; 1 µM): 0.926
